Results: PMC6121034 (Frontiers in Cellular Neuroscience, 2018)

Key:
Format in all cases: cell-based
[1] = molecular target: T1, α1β2γ2 GABAA receptor (α1 subunit) (Rattus norvegicus, UniProt P18508+P62813+P63138); test: whole-cell patch clamp dose-response, partial agonist
T1 construct: gene Gabra1; rat α1/β2/γ2L subunits expressed in HEK-293 cells; with GABAA receptor β2 (Gabrb2) and γ2L (Gabrg2) subunits

[2] = molecular target: T2, α1β2γ2 GABAA receptor (α1 subunit), ALA mutant (Rattus norvegicus, UniProt P18508+P62813+P63138, P62813:F91A); test: whole-cell patch clamp, currents evoked by […] GABA; parameters: dose or concentration left out as unconfirmed
T2 construct: gene Gabra1; rat α1/β2/γ2L subunits expressed in HEK-293 cells; with GABAA receptor β2 (Gabrb2) and γ2L (Gabrg2) subunits
T2 sequence (P62813 28-455 F91A): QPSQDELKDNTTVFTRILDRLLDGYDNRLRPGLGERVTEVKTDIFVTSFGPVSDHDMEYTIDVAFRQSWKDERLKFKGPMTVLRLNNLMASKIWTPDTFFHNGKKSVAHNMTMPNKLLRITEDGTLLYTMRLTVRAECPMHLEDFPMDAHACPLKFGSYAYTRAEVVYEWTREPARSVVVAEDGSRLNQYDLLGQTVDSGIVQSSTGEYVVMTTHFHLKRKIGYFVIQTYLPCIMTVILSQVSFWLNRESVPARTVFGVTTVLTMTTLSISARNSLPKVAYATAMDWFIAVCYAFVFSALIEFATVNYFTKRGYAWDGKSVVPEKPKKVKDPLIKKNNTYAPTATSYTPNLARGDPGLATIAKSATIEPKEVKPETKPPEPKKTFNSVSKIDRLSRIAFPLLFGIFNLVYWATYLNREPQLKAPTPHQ
T2 sequence (P63138 26-474): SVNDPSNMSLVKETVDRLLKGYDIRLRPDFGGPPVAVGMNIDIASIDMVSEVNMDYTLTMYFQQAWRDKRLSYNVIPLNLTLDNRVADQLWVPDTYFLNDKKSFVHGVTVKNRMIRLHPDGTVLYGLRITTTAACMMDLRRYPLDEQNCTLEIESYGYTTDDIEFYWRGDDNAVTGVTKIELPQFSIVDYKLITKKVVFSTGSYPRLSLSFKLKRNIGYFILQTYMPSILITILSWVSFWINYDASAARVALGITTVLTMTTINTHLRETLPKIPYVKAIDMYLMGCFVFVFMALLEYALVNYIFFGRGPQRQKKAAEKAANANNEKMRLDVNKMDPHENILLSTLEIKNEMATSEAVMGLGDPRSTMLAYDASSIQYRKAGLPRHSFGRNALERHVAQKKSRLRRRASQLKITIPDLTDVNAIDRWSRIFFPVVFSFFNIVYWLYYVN
T2 sequence (P18508 39-466): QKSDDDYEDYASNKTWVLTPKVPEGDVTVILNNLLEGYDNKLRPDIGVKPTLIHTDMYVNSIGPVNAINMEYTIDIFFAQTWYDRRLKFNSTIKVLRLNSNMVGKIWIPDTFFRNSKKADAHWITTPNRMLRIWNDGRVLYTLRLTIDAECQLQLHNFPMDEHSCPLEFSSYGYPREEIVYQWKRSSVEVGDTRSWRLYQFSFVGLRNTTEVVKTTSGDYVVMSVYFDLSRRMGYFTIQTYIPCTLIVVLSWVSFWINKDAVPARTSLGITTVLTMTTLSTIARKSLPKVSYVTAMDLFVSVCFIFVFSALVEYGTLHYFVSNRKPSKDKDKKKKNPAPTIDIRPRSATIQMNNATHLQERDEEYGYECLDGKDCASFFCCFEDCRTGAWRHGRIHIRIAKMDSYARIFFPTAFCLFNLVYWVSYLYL

[3] = molecular target: T3, α1β2γ2 GABAA receptor (α1 subunit), LEU mutant (Rattus norvegicus, UniProt P18508+P62813+P63138, P62813:F91L); test: whole-cell patch clamp, currents evoked by […] GABA
T3 construct: gene Gabra1; rat α1/β2/γ2L subunits expressed in HEK-293 cells; with GABAA receptor β2 (Gabrb2) and γ2L (Gabrg2) subunits
T3 sequence (P62813 28-455 F91L): as the sequence (P62813 28-455 F91A) above, with A64L counted along it
T3 sequence (P63138 26-474): as the sequence (P63138 26-474) above
T3 sequence (P18508 39-466): as the sequence (P18508 39-466) above

T1 sequence (P62813 28-455): as the sequence (P62813 28-455 F91A) above, with A64F counted along it
T1 sequence (P63138 26-474): as the sequence (P63138 26-474) above
T1 sequence (P18508 39-466): as the sequence (P18508 39-466) above

## O=S(=O)(O)C1CCNCC1 [P4S, piperidine-4-sulfonic acid]
[1]
  EC50: 46 µM

## NCCCC(=O)O [GABA]
[2]
  whole-cell patch clamp, currents evoked by GABA: Typical traces of current responses to saturating [GABA] application (black traces)
[3]
  whole-cell patch clamp, currents evoked by 100 mM GABA: Typical traces of current responses to saturating [GABA] application (black traces)
